Reference: patent US20240150340A1, “CDK Inhibitors And Their Use As Pharmaceuticals” (Prelude Therapeutics Incorporated, priority 2022, published 2024)

Tests used:
[1] = system: OVCAR3 p-RB; experiment: pRB ICW Assay in OVCAR3 Cells; assay type: cell-based; settings: Homo sapiens, OVCAR-3, incubated with compound for 2 hours
Protocol: pRB ICW Assay in OVCAR3 Cells
OVCAR3 cells were maintained in RPMI (Corning, Catalog #: 10-040-CV) supplemented with 10% v/v FBS (Gibco, Catalog #: 26140-079), 1% v/v Penicillin Streptomycin (Gibco, Catalog #15140-122.) OVCAR3 cells grown at log phase were trypsinized, counted, and resuspended in fresh medium to reach a final density of 6.7e4 cells/mL and 75 μL of culture were dispensed into a 384-well plate (Falcon, cat #353962) using a Multidrop Combi dispenser (Thermo Scientific). The next day, compounds were dispensed as a 9-point, ½ log serial dilution using a Tecan digital dispenser (D300e), and cells were incubated with compound for 2 hours in a humidified incubator at 37° C. A reference compound at a final concentration of 10 μM was used as a control for maximum inhibition. Each compound was tested in duplicate for each experiment. At the end of the incubation, […] (Electron Microscopy, cat #15710) was slowly added to each well and the plate was incubated at room temperature (RT) for 30 minutes to fix cells. Cells were then permeabilized by incubating with 50 μL/well of wash buffer (1×PBS with 0.1% Triton X-100) 5×5 minutes, followed by 1 hour blocking with 30 μL/well of Odyssey blocking buffer (Li-COR, cat #927-40000), at RT. Anti-phosphor RB antibody (Cell signaling 8516S) was diluted 1:1000 in Odyssey blocking buffer and 20 μL was added to all wells and incubated overnight in 4° C. with gently rocking. The next day, cells were washed 5×5 min with 50 μL/well of wash buffer, followed with 1 hour incubation with secondary antibody and DRAQ5 diluted in Odyssey blocking buffer (1:500 dilution for secondary antibody and 1:2000 dilution for DRAQ5), 5×5 min washes, and one last wash with water. Plates were dried in 37° C. oven for 5 minutes and scanned using Li-COR Odyssey CLx imaging system to acquire intensities at 700 and 800 nm channels.

[2] = target: T1, CDK2/Cyclin E2 (Homo sapiens, UniProt P24941); experiment: CDK2/CyclinE2 Enzymatic Activity Assay (TR-FRET); assay type: biochemical; settings: ATP 1 mM final, read-out: CDK2_E1 IC50
T1 construct: Recombinant protein complex CDK2/Cyclin E2, expressed from insect cell, was purchased from ProQinase
Protocol: CDK2/CyclinE2 Enzymatic Activity Assay
The inhibitory activity of compounds was evaluated in vitro using TR-FRET assay with white 384-well low volume microplate (Greiner Bio-One). CDK2/Cyclin E2 catalyzed phosphorylation of peptide in the presence and absence of compounds was measured and used in IC50 determination. Recombinant protein complex CDK2/Cyclin E2, expressed from insect cell, was purchased from ProQinase. Testing compounds were dissolved in DMSO at 1 mM and tested in 9-dose IC50 mode. The reaction mixture was prepared by mixing CDK2/CyclinE2 (1 nM final), ULight-4E-BP1 (50 nM final, Perkinelmer, TRF0128-D), and ATP (1 mM final) in assay buffer (20 mM of HEPES pH 7.4, 1 mM of EGTA, 0.05% BSA, 0.005% Tween 20, and 1 mM TCEP). The compound of interest in DMSO was added to each well in 3-fold serial dilution by dispenser (TECAN D300E) to make a 9.9 μL of reaction mixture. After 20 minutes preincubation at room temperature, 0.1 μL MgCl2 (10 mM final) was added to initiate the reaction. Following a 45 minute incubation at 37° C., the reaction was stopped by addition of 2 μL of quenching buffer consisting of Lance detection buffer (Perkinelmer CR97-100C), LANCE Ultra Europium-anti-P-4E-BP1 (Perkinelmer, TRF0216-D), EDTA, and incubated at room temperature for additional 60 minutes in the dark. The reaction signal was measured by Envision multimode plate reader (PerkinElmer, 2102-0010). IC50 values were determined by fitting the data to the standard 4 parameters with Hill Slope using GraphPad Prism software.

| SMILES | IC50 [1] [nM] | IC50 [2] [nM] |
| --- | --- | --- |
| CC(C)(O)c1cnc(-c2nc(NC3CCN(S(C)(=O)=O)CC3)ncc2C(F)(F)F)s1 [Example 95, 2-(2-(2-((1-(methylsulfonyl)piperidin-4-yl)amino)-5-(trifluoromethyl)pyrimidin-4-yl)thiazol-5-yl)propan-2-ol] | 100 to 500 | ≤ 100 |
| CC(C)(O)c1cnc(-c2nc(N[C@H]3CCN(S(C)(=O)=O)C[C@H]3F)ncc2C(F)(F)F)s1 [Example 96, 2-(2-(2-(((3R,4S)-3-fluoro-1-(methylsulfonyl)piperidin-4-yl)amino)-5-(trifluoromethyl)pyrimidin-4-yl)thiazol-5-yl)propan-2-ol] | ≤ 100 | ≤ 100 |
| CC(C)(O)c1cnc(-c2nc(N[C@@H]3CCN(S(C)(=O)=O)C[C@H]3F)ncc2C(F)(F)F)s1 [Example 97, 2-(2-(2-(((3R,4R)-3-fluoro-1-(methylsulfonyl)piperidin-4-yl)amino)-5-(trifluoromethyl)pyrimidin-4-yl)thiazol-5-yl)propan-2-ol] | ≤ 100 | ≤ 100 |
| Cn1cnc(S(=O)(=O)N2CCC(Nc3ncc(C(F)(F)F)c(-c4ncc(C(C)(C)O)s4)n3)CC2)c1 [Example 98, 2-(2-(2-((1-((1-methyl-1H-imidazol-4-yl)sulfonyl)piperidin-4-yl)amino)-5-(trifluoromethyl)pyrimidin-4-yl)thiazol-5-yl)propan-2-ol] | ≤ 100 | ≤ 100 |
| Cn1cc(S(=O)(=O)N2CCC(Nc3ncc(C(F)(F)F)c(-c4ncc(C(C)(C)O)s4)n3)CC2)cn1 [Example 99, 2-(2-(2-((1-((1-methyl-1H-pyrazol-4-yl)sulfonyl)piperidin-4-yl)amino)-5-(trifluoromethyl)pyrimidin-4-yl)thiazol-5-yl)propan-2-ol] | 100 to 500 | ≤ 100 |
| Cn1cc(S(=O)(=O)N2CC[C@@H](Nc3ncc(C(F)(F)F)c(-c4ncc(C(C)(C)O)s4)n3)[C@H](F)C2)cn1 [Example 101, 2-(2-(2-(((3R,4R)-3-fluoro-1-((1-methyl-1H-pyrazol-4-yl)sulfonyl)piperidin-4-yl)amino)-5-(trifluoromethyl)pyrimidin-4-yl)thiazol-5-yl)propan-2-ol] | ≤ 100 | ≤ 100 |
| CC(O)(c1cnc(-c2nc(NC3CCN(S(C)(=O)=O)CC3)ncc2C(F)(F)F)s1)C(F)F (stereo not drawn) [Example 102, 1,1-difluoro-2-(2-(2-((1-(methylsulfonyl)piperidin-4-yl)amino)-5-(trifluoromethyl)pyrimidin-4-yl)thiazol-5-yl)propan-2-ol] | ≤ 100 | ≤ 100 |
| C[C@@H]1CN(S(=O)(=O)c2cnn(C)c2)CC[C@@H]1Nc1ncc(C(F)(F)F)c(-c2ncc(C(C)(O)C(F)(F)F)s2)n1 (stereo partly drawn) [Example 105, 1,1,1-trifluoro-2-(2-(2-(((3R,4S)-3-methyl-1-((1-methyl-1H-pyrazol-4-yl)sulfonyl)piperidin-4-yl)amino)-5-(trifluoromethyl)pyrimidin-4-yl)thiazol-5-yl)propan-2-ol] | ≤ 100 | ≤ 100 |
| CS(=O)(=O)N1CCC(Nc2ncc(C(F)(F)F)c(-c3ncc(C4(O)CCC4)s3)n2)CC1 [Example 106, 1-(2-(2-((1-(methylsulfonyl)piperidin-4-yl)amino)-5-(trifluoromethyl)pyrimidin-4-yl)thiazol-5-yl)cyclobutan-1-ol] | 100 to 500 | ≤ 100 |
| Cn1cc(S(=O)(=O)N2CC[C@@H](Nc3ncc(C(F)(F)F)c(-c4ncc(CC(C)(C)O)s4)n3)[C@H](F)C2)cn1 [Example 110, 1-(2-(2-(((3R,4R)-3-fluoro-1-((1-methyl-1H-pyrazol-4-yl)sulfonyl)piperidin-4-yl)amino)-5-(trifluoromethyl)pyrimidin-4-yl)thiazol-5-yl)-2-methylpropan-2-ol] | 100 to 500 | ≤ 100 |
| Cc1cnc(N[C@H]2CCN(S(C)(=O)=O)C[C@H]2F)nc1-c1ncc(CC(C)(C)O)s1 [Example 155, 1-(2-(2-(((3R,4S)-3-fluoro-1-(methylsulfonyl)piperidin-4-yl)amino)-5-methylpyrimidin-4-yl)thiazol-5-yl)-2-methylpropan-2-ol] | ≤ 100 | – |
